Patent US20090317357A1, “Methods for treating or preventing autoimmune disease using histamine h1 receptor-blocking agents” (priority 2003, published 2009)

Columns and labels:
EAE in SJL (H-2s) mice = assay: EAE induced with PLP139-151 in SJL mice, daily i.p. treatment with H1R or PAFR antagonist; type: in vivo; settings: day 13, daily i.p. from day 2 after induction, pyrilamine 0.6 mg/mouse, CV6209 1 μg/mouse, vehicle group 3±0.52
Protocol: Modulation of EAE with H1R antagonist and PAFR antagonist. EAE was induced in SJL/J mice with PLP139-151. The H1R antagonist pyrilamine (0.6 mg/mouse; n=8), PAFR antagonist CV6209 (1 μg/mouse; n=8), or vehicle alone (PBS; n=7) were given daily i.p. starting on day 2 after the induction of EAE.
Mice were assessed daily for clinical signs of EAE (see id.). For each mouse, a remission was defined as decrease of the score of at least one point for at least 2 consecutive days. […] In the pharmacological studies, the histamine receptor 1 antagonist, pyrilamine (Sigma, St Louis, Mo.) and the PAF antagonist, CV6209 (Biomol, Plymouth Meeting, Pa.) were injected daily i.p. in PBS starting 2 days after the induction of EAE.
We targeted pharmacologically PAF and histamine, the main vasoactive mediators of murine anaphylaxis, and evaluated the development of EAE. EAE was induced in SJL (H-2s) mice with PLP139-151 and on the second day after the induction of the disease we started a daily i.p. treatment with the PAFR antagonist CV 6209, or with the H1R antagonist pyrilamine.

EAE = settings: cited: Inaba et al. 1999; Inoue et al. 1996; cited from earlier work

Compound | mean EAE score (EAE in SJL (H-2s) mice) | effect on EAE (EAE)
CCCCCCCCCCCCCCCCCCNC(=O)OCC(COC(=O)N(Cc1cccc[n+]1CC)C(C)=O)OC (stereo not shown) [CV 6209] | 0.71±0.36 | –
dermatan sulfate | – | ameliorate EAE
batroxobin | – | ameliorate EAE
COc1ccc(CN(CCN(C)C)c2ccccn2)cc1 [pyrilamine] | 0.57±0.2 | –
